The results in this text go back to patent US20090191193A1, “Aryl Vinyl Sulfides, Sulfones, Sulfoxides and Sulfonamides, Derivatives Thereof and Therapeutic Uses Thereof” (TEMPLE UNIVERSITY-OF THE COMMONWEALTH SYSTEM OF HIGHER …, priority 2006, published 2009).

Series [1] concerns DU145 (prostate cancer). The series is described as follows: Effect on tumor cell lines, viable cell count by trypan blue exclusion (Latham et al.): DU145. It is filed as cell-based. The note with it: DU145 prostate cancer cells, viable cell count 96 hours after treatment.
The subject of series [2] is K562 (chronic myelogenous leukaemia). The series is described as follows: Effect on tumor cell lines, viable cell count by trypan blue exclusion (Latham et al.): K562. It counts as cell-based. The note with it: K562 chronic myelogenous leukaemia cells, viable cell count 96 hours after treatment.

For orientation: IC50 means the concentration that inhibits the measured activity by half. The term melting point denotes the temperature of the solid-liquid transition. Compound `N#C/C(=C\c1ccc(Br)cc1)S(=O)(=O)Cc1ccc(Cl)cc1Cl` [Example 98] came in with a melting point of 126 to 138 °C. The IC50 in series [1] (Homo sapiens, DU-145, 96 h) lay within 50 to 100 µM. The compound further registered an IC50 in series [2] (Homo sapiens, K562, 96 h) of 25 to 50 µM.
On the same counts, the results for `COc1ccc(CS(=O)(=O)/C(C#N)=C/c2ccc(OC)cc2OC)cc1` [Example 147] are 156 to 160 °C, above 100 µM and above 100 µM.
On the same counts, the results for `N#C/C(=C\c1ccc(Cl)cc1)S(=O)(=O)Nc1ccc(Br)cc1` [Example 212] are 169 to 171 °C, 25 to 50 µM and 25 to 50 µM.
With `COc1ccc(NS(=O)(=O)/C(C#N)=C/c2ccc(Cl)c(Cl)c2)cc1` [Example 288], the melting point was in the range of 84 to 86 °C. Also, the IC50 in series [1] (Homo sapiens, DU-145, 96 h) was in the range of 50 to 100 µM. In series [2] (Homo sapiens, K562, 96 h), this compound showed an IC50 of 25 to 50 µM.
`COc1cc(OC)c(/C=C(\C#N)S(=O)(=O)Cc2ccc(OC)c(F)c2)c(OC)c1` [Example 39] yielded a melting point of 162 to 164 °C. Further, the IC50 in series [1] (Homo sapiens, DU-145, 96 h) lay in the range of 1 to 10 µM. Moreover, the IC50 in series [2] (Homo sapiens, K562, 96 h) was in the range of 1 to 10 µM.
`Cc1ccc(/C=C(\C#N)S(=O)(=O)Cc2ccc(Cl)cc2Cl)s1` [Example 63]: the melting point fell in the range of 118 to 124 °C. For the same compound, in series [1] (Homo sapiens, DU-145, 96 h), the IC50 was above 100 µM. For the same compound, the IC50 in series [2] (Homo sapiens, K562, 96 h) was above 100 µM.
Take `COc1cc(OC)c(/C=C(\C#N)S(=O)(=O)Cc2ccc(Cl)cc2)c(OC)c1` [Example 53]: the melting point lay in the range of 177 to 180 °C. Also, the IC50 in series [1] (Homo sapiens, DU-145, 96 h) lay in the range of 50 to 100 µM. In series [2] (Homo sapiens, K562, 96 h), the IC50 lay within 50 to 100 µM.
Compound `COc1ccc(/C=C(\C#N)S(=O)(=O)Cc2ccc(Cl)cc2)cc1O` [Example 44] registered a melting point of 155 to 165 °C. This compound also had an IC50 in series [1] (Homo sapiens, DU-145, 96 h) above 100 µM. Moreover, the IC50 in series [2] (Homo sapiens, K562, 96 h) fell in the range of 50 to 100 µM.
Compound `COc1ccc(/C=C(\C#N)S(=O)(=O)Nc2ccc(F)cc2)c(F)c1` [Example 241] gave a melting point of 142 to 144 °C. This compound also showed an IC50 in series [1] (Homo sapiens, DU-145, 96 h) above 100 µM. In series [2] (Homo sapiens, K562, 96 h), this compound showed an IC50 of 50 to 100 µM.
In turn, `N#C/C(=C\c1c(F)c(F)c(F)c(F)c1F)S(=O)(=O)Cc1ccc(Br)cc1` [Example 19] showed a melting point of 146 to 148 °C. The IC50 in series [1] (Homo sapiens, DU-145, 96 h) came to 50 µM. The same compound registered an IC50 in series [2] (Homo sapiens, K562, 96 h) of 10 µM.
With `CCOc1cc(/C=C(\C#N)S(=O)(=O)Cc2ccc(Cl)cc2)ccc1O` [Example 74], the melting point lay in the range of 150 to 165 °C. In series [1], the IC50 was 50 to 100 µM. In series [2], this compound gave an IC50 of 50 to 100 µM.
For `COc1cc(OC)c(/C=C(\C#N)S(=O)(=O)Nc2ccc(Br)cc2)c(OC)c1` [Example 215], the melting point lay in the range of 197 to 199 °C. Besides, the IC50 in series [1] (Homo sapiens, DU-145, 96 h) was in the range of 25 to 50 µM. The same compound gave an IC50 in series [2] (Homo sapiens, K562, 96 h) of 10 to 25 µM.
Regarding `N#C/C(=C\c1ccoc1)S(=O)(=O)Cc1cccc(Br)c1` [Example 115], the melting point was 128 to 132 °C. Also, the IC50 in series [1] (Homo sapiens, DU-145, 96 h) was above 100 µM. The IC50 in series [2] (Homo sapiens, K562, 96 h) is above 100 µM.
In the case of `Cc1ccc(/C=C(\C#N)S(=O)(=O)Cc2ccc(Br)cc2)s1` [Example 118], the melting point lay in the range of 142 to 148 °C. In series [1] (Homo sapiens, DU-145, 96 h), this compound displayed an IC50 above 100 µM. Besides, in series [2] (Homo sapiens, K562, 96 h), the IC50 was above 100 µM.
`Cc1ccc(NS(=O)(=O)/C(C#N)=C/c2ccc(C)c(C)c2)c(C)c1` [Example 264]: the melting point was in the range of 166 to 169 °C. The IC50 in series [1] (Homo sapiens, DU-145, 96 h) is above 100 µM. Besides, the IC50 in series [2] (Homo sapiens, K562, 96 h) was above 100 µM.
In the case of `N#C/C(=C\c1c(F)c(F)c(F)c(F)c1F)S(=O)(=O)Nc1ccc(F)cc1` [Example 234], the melting point is 150 to 152 °C. The same compound registered an IC50 in series [1] (Homo sapiens, DU-145, 96 h) of 1 to 10 µM. This compound also displayed an IC50 in series [2] (Homo sapiens, K562, 96 h) below 1 µM.
For `COc1ccc(NS(=O)(=O)/C(C#N)=C/c2c(OC)cc(OC)cc2OC)cc1` [Example 279], the melting point was in the range of 151 to 154 °C. Moreover, the IC50 in series [1] was 25 to 50 µM. Further, the IC50 in series [2] was 10 to 25 µM.
On to `COc1cc(/C=C(\C#N)S(=O)(=O)Cc2ccccc2)cc(OC)c1OC` [Example 131], for which the melting point lay within 142 to 146 °C. The compound also had an IC50 in series [1] (Homo sapiens, DU-145, 96 h) above 100 µM. The same compound gave an IC50 in series [2] (Homo sapiens, K562, 96 h) of 50 to 100 µM.
